Reference: the supplement of paper PMC10307832

Tests used:
Assay in all cases: relative viability (nuclei count vs DMSO), 5 days (fraction); higher = more cells survive
Bortezomib + Dasatinib = compound: CC(C)C[C@H](NC(=O)[C@H](Cc1ccccc1)NC(=O)c1cnccn1)B(O)O [Bortezomib] + Cc1nc(Nc2ncc(C(=O)Nc3c(C)cccc3Cl)s2)cc(N2CCN(CCO)CC2)n1 [Dasatinib] (partner 0.075 µM)
How it was run: (§1)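 Nuclei were stained with Hoechst during a one-step fixation (final 0.05% Triton X-100, 1% formaldehyde, 1 ug/ml Hoechst) carried out 5 days after dosing, then counted on 4× images. The cells, lung cancer lines in 1536-well plates, had been dosed by pin tool the day after seeding with one drug alone or a fixed anchor-drug dose plus five library-drug doses (not always all listed) in √10 steps. Relative viability is the nuclei count in treated wells divided by that in vehicle wells, and each value is the median of duplicate plates.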

[1] = compound: CC1=CC(=NN1)NC2=CC(=NC(=N2)/C=C/C3=CC=CC=C3)N4CCN(CC4)C + CS(=O)(=O)N1CCN(Cc2cc3nc(-c4cccc5[nH]ncc45)nc(N4CCOCC4)c3s2)CC1 [Pictilisib] (partner 1 µM)
How it was run: as §1

[2] = compound: CC1=CC(=NN1)NC2=CC(=NC(=N2)/C=C/C3=CC=CC=C3)N4CCN(CC4)C + Nc1ncn([C@H]2C[C@H](O)[C@@H](CO)O2)c(=O)n1 [Decitabine] (partner 2 µM)
How it was run: as §1

Obatoclax + Olaparib = compound: COC1=CC(c2cc3ccccc3[nH]2)=N/C1=C\c1[nH]c(C)cc1C [Obatoclax] + O=C(c1cc(Cc2n[nH]c(=O)c3ccccc23)ccc1F)N1CCN(C(=O)C2CC2)CC1 [Olaparib] (partner 8 µM)
How it was run: as §1

Cell Line | relative viability (Bortezomib + Dasatinib; first compound 0.0002 µM) | relative viability (Bortezomib + Dasatinib; first compound 0.000632 µM) | relative viability (Bortezomib + Dasatinib; first compound 0.002 µM) | relative viability (Bortezomib + Dasatinib; first compound 0.006325 µM) | relative viability (Bortezomib + Dasatinib; first compound 0.02 µM) | relative viability ([1]; first compound 0.08 µM) | relative viability ([1]; first compound 0.253 µM) | relative viability ([1]; first compound 0.8 µM) | relative viability ([1]; first compound 2.53 µM) | relative viability ([1]; first compound 8 µM) | relative viability ([2]; first compound 0.08 µM) | relative viability ([2]; first compound 0.253 µM) | relative viability ([2]; first compound 0.8 µM) | relative viability ([2]; first compound 2.53 µM) | relative viability ([2]; first compound 8 µM) | relative viability (Obatoclax + Olaparib; first compound 0.01 µM) | relative viability (Obatoclax + Olaparib; first compound 0.03162 µM) | relative viability (Obatoclax + Olaparib; first compound 0.1 µM) | relative viability (Obatoclax + Olaparib; first compound 0.3162 µM) | relative viability (Obatoclax + Olaparib; first compound 1 µM)
HCC-78 | 0.354 | 0.385 | 0.291 | 0.422 | 0.274 | 0.219 | 0.216 | 0.214 | 0.202 | 0.108 | 0.585 | 0.624 | 0.694 | 0.472 | 0.292 | 0.836 | 0.952 | 1.26 | 0.668 | 0.855
HCC-366 | 0.664 | 0.474 | 0.726 | 0.481 | 0.0296 | 0.148 | 0.156 | 0.136 | 0.112 | 0.0428 | 0.35 | 0.368 | 0.318 | 0.0513 | 0.0463 | 0.322 | 0.366 | 0.316 | 0.334 | 0.272
HCC-827 | 0.302 | 0.285 | 0.259 | 0.34 | 0.199 | 0.961 | 1.02 | 1.07 | 0.747 | 0.8 | 0.196 | 0.353 | 0.337 | 0.285 | 0.189 | 0.594 | 0.542 | 0.628 | 0.581 | 0.221
HOP-62 | 0.581 | 0.645 | 0.713 | 0.228 | 0.068 | 0.558 | 0.458 | 0.919 | 0.429 | 0.0856 | 0.203 | 0.191 | 0.212 | 0.197 | 0.166 | 0.292 | 0.352 |  | 0.434 | 0.405
IA-LM |  |  |  |  |  | 0.319 | 0.505 | 0.378 | 0.173 | 0.0595 |  |  |  |  |  | 0.832 | 0.881 | 0.775 | 0.782 | 0.114
LC-2-ad | 0.52 | 0.332 | 0.6 | 0.149 | 0.187 | 0.46 | 0.356 | 0.247 | 0.0963 | 0.0784 | 0.821 | 0.809 | 0.744 | 0.463 | 0.187 | 0.693 | 0.676 | 0.732 | 0.723 | 0.648
LCLC-97TM1 | 0.738 | 0.732 | 0.862 | 0.718 | 0.148 | 0.171 | 0.102 | 0.161 | 0.105 | 0.0788 | 0.176 | 0.22 | 0.244 | 0.182 | 0.0703 | 0.273 | 0.38 | 0.389 | 0.293 | 0.348
LCLC-103H | 0.461 | 0.486 | 0.435 | 0.161 | 0.123 | 0.623 | 0.676 | 0.58 | 0.5 | 0.347 | 0.746 | 0.774 | 0.72 | 0.713 | 0.64 | 0.704 | 0.745 | 0.672 | 0.745 | 0.706
LK-2 | 0.287 | 0.304 | 0.203 | 0.114 | 0.138 | 0.464 | 0.694 | 0.54 | 0.279 | 0.186 | 0.215 | 0.327 | 0.274 | 0.175 | 0.0787 | 0.806 | 0.81 | 0.768 | 0.695 | 0.762
LOU-NH91 | 0.539 | 0.529 | 0.519 | 0.271 | 0.226 | 0.461 | 0.544 | 0.513 | 0.454 | 0.314 | 0.793 | 0.856 | 0.807 | 0.809 | 0.473 | 0.921 | 0.919 | 0.834 | 0.857 | 0.398
LU99A | 0.521 | 0.381 | 0.655 | 0.433 | 0.174 | 0.328 | 0.296 | 0.284 | 0.157 | 0.142 | 0.86 | 0.892 | 0.73 | 0.409 | 0.214 | 0.292 | 0.243 |  | 0.313 | 0.321
NCI-H522 | 0.875 | 0.79 | 0.965 | 0.4 | 0.393 |  |  |  |  |  | 0.593 | 0.685 | 0.69 | 0.601 | 0.391 | 0.783 | 0.681 | 0.694 | 0.621 | 0.56
NCI-H1299 |  |  |  |  |  | 0.725 | 0.853 | 0.596 | 0.107 | 0.0675 |  |  |  |  |  | 0.946 | 0.92 | 0.976 | 0.969 | 0.331
NCI-H1563 | 0.448 | 0.428 | 0.411 | 0.465 | 0.455 | 0.624 | 0.655 | 0.584 | 0.582 | 0.355 |  |  |  |  |  |  |  |  |  | 
NCI-H1623 | 0.537 | 0.572 | 0.565 | 0.52 | 0.262 |  |  |  |  |  |  |  |  |  |  |  |  |  |  | 
NCI-H1648 |  |  |  |  |  |  |  |  |  |  | 0.417 | 0.552 | 0.606 | 0.294 | 0.463 | 1.07 | 0.793 | 0.91 | 0.624 | 0.576
NCI-H1703 |  |  |  |  |  |  | 0.24 | 0.179 | 0.182 | 0.131 |  |  |  |  |  | 0.18 | 0.403 | 0.393 | 0.524 | 0.246
NCI-H2228 | 0.475 | 0.464 | 0.328 | 0.0587 | 0.0925 | 0.433 | 0.547 | 0.468 | 0.065 | 0.0792 |  |  |  |  |  | 0.583 | 0.521 | 0.62 | 0.489 | 0.405
NCI-H2342 | 0.286 | 0.306 | 0.322 | 0.334 | 0.349 |  |  |  |  |  | 0.753 | 0.774 | 0.662 | 0.703 | 0.641 | 0.419 | 0.409 | 0.448 | 0.515 | 0.473
SW 900 | 0.74 | 0.507 | 0.167 | 0.107 | 0.116 |  |  |  |  |  | 0.426 | 0.377 | 0.413 | 0.277 | 0.139 | 0.893 | 0.803 | 0.924 | 0.703 | 0.606
